# Reference: paper PMC8842277, “Highly Antiproliferative Latonduine and Indolo[2,3-c]quinoline Derivatives: Complex Formation with Copper(II) Markedly Changes the Kinase Inhibitory Profile” (Journal of Medicinal Chemistry, 2022)
# pIC50: −log10 of the molar value.
# Tests used:
# calf thymus DNA (ct-DNA) = test: Ethidium bromide displacement and fluorescence lifetime; assay type: binding; conditions: 10 μM ct-DNA, 5 μM EtBr, 10 mM HEPES, pH 7.40
# Protocol: The interaction of 4 and 8 and HL^4 and HL^8 with ct-DNA was investigated by spectrofluorometry in ethidium bromide (EtBr) displacement studies. EtBr is a fluorescent probe, and its fluorescence intensity increases upon intercalation into the DNA helix. […] Decrease in the fluorescence may indicate (i) the displacement of EtBr or (ii) (partial) quenching of the fluorescence of the bound probe. In order to separate these processes, fluorescence lifetime measurements were carried out. […] In addition, they provided evidence that the two copper(II) complexes bind to ct-DNA. However, complex 8 replaced EtBr more effectively than 4. […]
# Fluorescence measurements were carried out on a Fluoromax (Horiba Jobin Yvon) fluorometer. […] The excitation wavelengths were 510 or 455 nm, and the fluorescence emission was measured in the range 530–750 nm. Corrections for self-absorbance and inner filter effect were done according to our former work.[106] Fluorescence lifetime was measured on the same fluorometer equipped with a DeltaHub time-correlated single photon counting (TCSPC) controller using a NanoLED light source N-455 (Horiba Jobin Yvon). […] The fluorescence intensity decay over time is described by a sum of exponentials, [drawing 3] […] Fractional intensities were calculated as described in our former work.[105] […]
# [1] = system: doxorubicin-sensitive Colo205 human colon adenocarcinoma cells; test: MTT antiproliferative assay; assay type: cell-based; conditions: for selectivity factor (SF) Colo205: IC50 MRC-5/IC50 Colo205; for pIC50: MTT, 72 h
Structure (SMILES),Effect on fluorescence of the EtBr–ct-DNA system (calf thymus DNA (ct-DNA)),selectivity factor (SF) Colo205 [1],pIC50 [1]
"CC(=NNc1nc2ccccc2c2c1[nH]c1ccc(Br)cc12)c1ccc(CN2CCOCC2)cn1.[Cl][Cu][Cl] [compound 8, CuCl2(HL^8)·H2O]",decreased the emission intensity,4.38,7.42
"CC(=NNC1=NCc2ccccc2-c2c1[nH]c1ccc(Br)cc21)c1ccc(CN2CCOCC2)cn1.[Cl][Cu][Cl] [compound 4, CuCl2(HL^4)·0.5H2O]",decreased the emission intensity,1.80,6.66
